According to US10919941B2, “Functional lipid constructs” (KODE BIOTECH LIMITED, priority 2007, dated 2021):
No end group written: not given here.

Columns and labels:
[1] = tested on: Miltenberger Antibody Positive Panel; experiment: Reactivity of modified RBCs against the Miltenberger Antibody Positive Panel; format: cell-based, human; set-up: key to score vs panel 15 TAP2 / score vs panel 4 T7202 / score vs panel 8 T5896 / score vs panel 2 T217 / score vs panel 3 T165 / score vs panel 14 TAP1 / score vs panel 10 Mia / score vs panel 11 Mur / score vs panel 12 Gam / score vs panel 6 T6025 / score vs panel 7 T8445 / score vs panel 9 MIII / score vs panel 13 BoxH / reactivity with Panel Serum #7 (T8445) / agglutination score, Panel Serum #7 (T8445): 0 or ‘−’ no agglutination; 0 or ‘−’ no agglutination; 1+ or 3=very weak agglutination; 1+ or 3=very weak agglutination; 2+ or 5=weak agglutination; 2+ or 5=weak agglutination; 3+ or 8=moderate strong agglutination; 3+ or 8=moderate strong agglutination; 4+ or 10/12=strong agglutination; 4+ or 10/12=strong agglutination; 4+ or 10/12=strong agglutination; conditions: for agglutination score, Panel Serum #7 (T8445): cells modified at 50 μg/ml, 2 hour 37° C., BioVue AHG cards; for reactivity with Panel Serum #7 (T8445): construct 50 μg/ml (2 hours, 37° C.)
Protocol: Red blood cells are modified by mixing 1 part by volume of washed packed red blood cells with 1 part by volume of peptide-lipid construct dispersed at a concentration of 10 to 1000 pg/ml in cell media (Celpresol™).
The suspensions are either: • 1. incubated for 2 hours at 37° C. before being washed and suspended in a cell medium for serological analysis at a concentration of 0.8 to 3% (Method 1); or • 2. incubated for 3 to 4 hours at room temperature (circa 25° C.) followed by 18 hours at 4° C. before being washed and suspended in a cell medium for serological analysis at a concentration of 0.8 to 3% (Method 2).
Serological reactions are graded or scored by either of two established systems (0 or ‘−’ no agglutination, 1+ or 3=very weak agglutination, 2+ or 5=weak agglutination, 3+ or 8=moderate strong agglutination, 4+ or 10/12=strong agglutination)
Serological platforms used are Tube (addition of reagents and reactants into plastic or glass serology tubes and after appropriate incubations, washing and centrifugation observing reactions macroscopically by eye and a 10× magnification eyepiece and scoring) and BioVue™ (addition of reactants into cassettes containing beads (including some reactants) and after appropriate incubations and centrifugation observing the reaction patterns trapped within the Gel matrix). BioVue is the serological column agglutination platform of Ortho-Clinical Diagnostics. Diamed is the serological column agglutination platform of Diamed AG.

antibody negative serums = experiment: False positive reactions of modified RBCs with antibody negative serums/plasma; format: cell-based, human; set-up: key to Reaction score BioVue AHG, PAC samples 1-46, 49, 50, 52, 53 / Reaction score BioVue AHG, PAC sample 47 / Reaction score BioVue AHG, PAC sample 48 / Reaction score BioVue AHG, PAC sample 51 / agglutination score, T series serum 2 / agglutination score, T series serum 42 / agglutination score, T series serum 63 / agglutination score, T series serum 62 / agglutination score, T series serum 7 / agglutination score, T series serum 20 / agglutination score, T series serum 48 / agglutination score, T series serum 22 / agglutination score, T series serum 39 / agglutination score, T series serum 23 / agglutination score, T series serum 30 / agglutination score, T series serum 4 / agglutination score, T series serum 31 / agglutination score, T series serum 44 / agglutination score, T series serum 61 / agglutination score, T series serum 18 / agglutination score, T series serum 21 / agglutination score, T series serum 28 / agglutination score, T series serum 55 / agglutination score, false positive serum T18 / agglutination score, false positive serum T21 / agglutination score, false positive serum T28 / agglutination score, false positive serum T55 / agglutination score, false positive serum T78 / agglutination score, false positive serum T92: 0 or ‘−’ no agglutination; 0 or ‘−’ no agglutination; 1+ or 3=very weak agglutination; 1+ or 3=very weak agglutination; 2+ or 5=weak agglutination; 2+ or 5=weak agglutination; 3+ or 8=moderate strong agglutination; 3+ or 8=moderate strong agglutination; 4+ or 10/12=strong agglutination; 4+ or 10/12=strong agglutination; 4+ or 10/12=strong agglutination; conditions: larger series = 102; cells modified at 50 μg/ml, 2 hour 37° C.; BioVue AHG cards

## M14: DOPE peptide-lipid construct: Mur peptide DTYPAHTANEVSE, leader c, spacer CMG(2) (DTYPAHTANEVSEC; also: DOPE peptide-lipid construct via leader Cys, spacer CMG(2))
[1]; Table 9, construct 10 μg/ml
  score vs panel 2 T217: 0
  score vs panel 3 T165: 10
  score vs panel 4 T7202: 0
  score vs panel 6 T6025: 8
  score vs panel 7 T8445: 5
  score vs panel 8 T5896: 0
  score vs panel 9 MIII: 0
  score vs panel 10 Mia: 0
  score vs panel 11 Mur: 0
  score vs panel 13 BoxH: 0
[1]; Table 9, construct 50 μg/ml
  score vs panel 2 T217: 0
  score vs panel 3 T165: 10
  score vs panel 4 T7202: 3
  score vs panel 6 T6025: 5
  score vs panel 7 T8445: 8
  score vs panel 8 T5896: 0
  score vs panel 9 MIII: 0
  score vs panel 10 Mia: 0
  score vs panel 11 Mur: 0
[1]; Table 9, construct 100 μg/ml
  score vs panel 2 T217: 3
  score vs panel 3 T165: 10
  score vs panel 4 T7202: 5
  score vs panel 6 T6025: 10
  score vs panel 7 T8445: 5
  score vs panel 8 T5896: 0
  score vs panel 9 MIII: 0
  score vs panel 10 Mia: 0
  score vs panel 11 Mur: 0
  score vs panel 13 BoxH: 0

## M16: DOPE peptide-lipid construct: Mur peptide TYPAHTANEV, leader c, spacer PEG (TYPAHTANEVC; also: DOPE peptide-lipid construct via leader Cys, spacer PEG)
[1]; Table 9, construct 100 μg/ml
  score vs panel 2 T217: 0
  score vs panel 3 T165: 10
  score vs panel 4 T7202: 5
  score vs panel 6 T6025: 5
  score vs panel 7 T8445: 12
  score vs panel 8 T5896: 0
  score vs panel 9 MIII: 0
  score vs panel 10 Mia: 0
  score vs panel 11 Mur: 0
  score vs panel 12 Gam: 0
  score vs panel 13 BoxH: 0

## M18: DOPE peptide-lipid construct: Mur peptide PAHTANEV, leader c, spacer CMG(2) (PAHTANEVC; also: DOPE peptide-lipid construct via leader Cys, spacer CMG(2))
[1]; Table 9, construct 100 μg/ml
  score vs panel 2 T217: 0
  score vs panel 3 T165: 10
  score vs panel 4 T7202: 0
  score vs panel 6 T6025: 10
  score vs panel 7 T8445: 8
  score vs panel 8 T5896: 0
  score vs panel 9 MIII: 0
  score vs panel 10 Mia: 0
  score vs panel 11 Mur: 0
  score vs panel 12 Gam: 0

## M19: DOPE peptide-lipid construct: Mur peptide PAHTANEV, leader c, spacer CMG(2) (PAHTANEVC; also: DOPE peptide-lipid construct via leader Cys, spacer CMG(2))
[1]; Table 9, construct 100 μg/ml
  score vs panel 2 T217: 0
  score vs panel 3 T165: 10
  score vs panel 4 T7202: 0
  score vs panel 6 T6025: 8
  score vs panel 7 T8445: 10
  score vs panel 8 T5896: 3
  score vs panel 9 MIII: 0
  score vs panel 10 Mia: 0
  score vs panel 11 Mur: 0
  score vs panel 12 Gam: 0
[1]
  agglutination score, Panel Serum #7 (T8445): 8
  reactivity with Panel Serum #7 (T8445): 8
Antibody negative serums
  agglutination score, false positive serum T55: 12

## M21: DOPE peptide-lipid construct: MUTK peptide SQTNDKHKRD, leader c, spacer CMG(2) (SQTNDKHKRDC; also: DOPE peptide-lipid construct via leader Cys, spacer CMG(2))
[1]; Table 8, construct 200 μg/ml
  score vs panel 2 T217: 0
  score vs panel 3 T165: 8
  score vs panel 4 T7202: 0
  score vs panel 6 T6025: 8
  score vs panel 7 T8445: 0
  score vs panel 8 T5896: 0
  score vs panel 9 MIII: 0
  score vs panel 10 Mia: 0
  score vs panel 11 Mur: 0
  score vs panel 12 Gam: 3
  score vs panel 15 TAP2: 5

## M25: DOPE peptide-lipid construct: Mur peptide Tyr Pro Ala His Thr Ala Asn Gln, leader c, spacer CMG(2)
[1]; Table 9, construct 50 μg/ml
  score vs panel 2 T217: 0
  score vs panel 3 T165: 3
  score vs panel 4 T7202: 0
  score vs panel 6 T6025: 0
  score vs panel 7 T8445: 3
  score vs panel 8 T5896: 0
  score vs panel 9 MIII: 0
  score vs panel 10 Mia: 0
  score vs panel 11 Mur: 0
  score vs panel 12 Gam: 0
  score vs panel 15 TAP2: 8
[1]
  agglutination score, Panel Serum #7 (T8445): 3
  reactivity with Panel Serum #7 (T8445): 3
Antibody negative serums
  agglutination score, false positive serum T78: 5

## M26: DOPE peptide-lipid construct: Mur peptide YPAHTANEV, leader c, spacer CMG(2) (YPAHTANEVC; also: DOPE peptide-lipid construct via leader Cys, spacer CMG(2))
[1]; Table 9, construct 50 μg/ml
  score vs panel 2 T217: 0
  score vs panel 3 T165: 10
  score vs panel 4 T7202: 0
  score vs panel 6 T6025: 8
  score vs panel 7 T8445: 8
  score vs panel 8 T5896: 0
  score vs panel 9 MIII: 0
  score vs panel 10 Mia: 0
  score vs panel 11 Mur: 0
  score vs panel 12 Gam: 0
  score vs panel 15 TAP2: 3
[1]
  agglutination score, Panel Serum #7 (T8445): 10
  reactivity with Panel Serum #7 (T8445): 10
Antibody negative serums
  agglutination score, false positive serum T18: 5
  agglutination score, false positive serum T21: 10
  agglutination score, false positive serum T28: 12
  agglutination score, false positive serum T55: 10
  agglutination score, false positive serum T78: 10
  agglutination score, false positive serum T92: 12

## M27: DOPE peptide-lipid construct: Mur peptide TYPAHTAN, leader c, spacer CMG(2) (TYPAHTANC; also: DOPE peptide-lipid construct via leader Cys, spacer CMG(2))
[1]; Table 9, construct 50 μg/ml
  score vs panel 2 T217: 0
  score vs panel 4 T7202: 10
  score vs panel 7 T8445: 0
  score vs panel 8 T5896: 0
  score vs panel 15 TAP2: 0

## M29: DOPE peptide-lipid construct: Mur peptide PAHTANEVS, leader c, spacer CMG(2) (PAHTANEVSC; also: DOPE peptide-lipid construct via leader Cys, spacer CMG(2))
[1]; Table 9, construct 50 μg/ml
  score vs panel 2 T217: 0
  score vs panel 4 T7202: 10
  score vs panel 8 T5896: 0
  score vs panel 15 TAP2: 8
[1]
  agglutination score, Panel Serum #7 (T8445): 8
  reactivity with Panel Serum #7 (T8445): 8
Antibody negative serums
  agglutination score, false positive serum T28: 5
  agglutination score, false positive serum T92: 8
